The source of these data is US11976046B1, “4-(4,5-bis(4-bromophenyl)-2-(4-methoxyphenyl)-1H-imidazol-1-yl)benzoic acid as an antimicrobial compound” (KING FAISAL UNIVERSITY, priority 2023, dated 2024).

This assay relates to different microbes. Put plainly: agar plate disc-diffusion antimicrobial testing. The following applies: against different microbes; screened against gram-positive Bacillus cereus and Staphylococcus aureus, gram-negative Pseudomonas aeruginosa and Escherichia coli, fungi Aspergillus flavus and Chrysosporium keratinophilum. The assay is classed as cell-based. On the procedure:
The agar plate disc-diffusion method was applied. Sterilized filter papers (6 mm in diameter) were wetted with 10 μL of a solution of 4-(4,5-bis(4-bromophenyl)-2-(4-methoxyphenyl)-1H-imidazol-1-yl)benzoic acid (V) to be tested, containing 10 mg/mL in DMSO, and the discs were allowed to air dry. The discs were then placed onto the surface of agar plates (nutrient agar for bacteria and Sabouraud's dextrose agar for fungi) seeded with the test organism. Each plate contained 15 mL of the agar medium, previously seeded with 0.2 mL of the broth culture of each organism pregrown for 18 hours. The plates were incubated at 37° C. for 48 hours, and 72 hours for fungi. The inhibition zones was measured in mm. Discs impregnated with DMSO were used as a control, and its inhibition zone was subtracted from the tested compound actual inhibition zone.

Turning to `COc1ccc(-c2nc(-c3ccc(Br)cc3)c(-c3ccc(Br)cc3)n2-c2ccc(C(=O)O)cc2)cc1` [V, 4-(4,5-bis(4-bromophenyl)-2-(4-methoxyphenyl)-1H-imidazol-1-yl)benzoic acid], the antimicrobial activities result was “excellent antimicrobial activities”.
